According to paper PMC12768458 (European journal of medicinal chemistry, 2025):

Assays:
[1] = system: colony forming megakaryocyte; conditions: CFU-Mk ref 14; cited from earlier work
BRD3-D2 = BRD3-D2 (Homo sapiens, UniProt Q15059); experiment: differential scanning fluorimetry; assay type: binding; conditions: DSF
BRD2-D2 = BRD2-D2 (Homo sapiens, UniProt P25440); experiment: differential scanning fluorimetry; assay type: binding; conditions: DSF
BET bromodomains = experiment: differential scanning fluorimetry; assay type: binding; conditions: DSF, majority of BET bromodomains
NLuc-BRD4-D1 = NLuc-BRD4-D1 (Homo sapiens, UniProt O60885); experiment: live-cell NanoBRET competition assay in HEK293T; assay type: cell-based; conditions: 1.25 μM, 2 h at 37 °C
CXCL1 mRNA expression = conditions: LPS-induced TSECs, prior work ref 27; cited from earlier work
CCL2 mRNA expression = conditions: LPS-induced TSECs, prior work ref 27; cited from earlier work

Chain of BRD3-D2 (Q15059 306-415 limits assumed): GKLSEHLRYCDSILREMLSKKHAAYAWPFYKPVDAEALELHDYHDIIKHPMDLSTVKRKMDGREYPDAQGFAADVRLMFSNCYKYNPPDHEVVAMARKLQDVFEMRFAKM
Chain of BRD2-D2 (P25440 344-453 limits assumed): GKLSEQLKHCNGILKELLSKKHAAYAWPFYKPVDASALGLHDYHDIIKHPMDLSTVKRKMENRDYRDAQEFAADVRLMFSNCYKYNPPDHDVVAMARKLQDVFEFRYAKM

Compound	less toxic compared to ABBV-075 [1]	stabilization in melting temperature (BRD3-D2)	stabilization in melting temperature (BRD2-D2)	stabilization in melting temperature (BET bromodomains)	% inhibition of BRD4-D1 (NLuc-BRD4-D1)	CXCL1 expression, in words (CXCL1 mRNA expression)	CCL2 expression, in words (CCL2 mRNA expression)
CCNC(=O)c1cc2c(-c3cc(C(C)(C)O)ccc3Oc3c(C)cc(F)cc3C)cn(C)c(=O)c2[nH]1 [ABBV-744]	18 fold	–	–	–	–	–	–
COc1cc2c(cc1-c1c(C)noc1C)ncc1[nH]c(=O)n([C@H](C)c3ccccn3)c12 [IBET-151]	–	3.96 ±0.09 °C	3.70 ±0.12 °C	> 6 °C	85 ±6%	significant efficacy in reducing the downstream expression of CXCL1 and CCL2	decrease in CCL2 mRNA levels comparable to control levels
CC(=O)Nc1c(F)cc(C(=O)N[C@H]2CC[C@H](O)CC2)cc1O[C@@H](C)c1ccccc1 [iBET-BD2]	–	–	–	–	–	does not significantly reduce the expression of CXCL1	–
